# Measurements published in patent US8937189B2, “Tri-substituted 2-benzhydryl-5-benzylamino-tetrahydro-pyran-4-ol and 6-benzhydryl-4-benzylamino-tetrahydro-pyran-3-ol analogues, and novel 3,6-disubstituted pyran derivatives” (Wayne State University, priority 2004, dated 2015).
# Structures can show the parent of a compound that is named as a salt.
# What was measured:
# rat NET = test: Inhibition of [3H]nisoxetine binding to NET; settings: Table 3; selectivity ratio of IC50 values
# Protocol: (§1) Briefly, rat striatum was the source for DAT, and cerebral cortex for SERT and NET. […] Test compounds were dissolved in dimethyl sulfoxide (DMSO) and diluted out in 10% (v/v) DMSO. […] At lease five triplicate concentrations of each test compound were studied, spaced evenly around the IC50 value. For DAT uptake assays, uptake of 50 nM [^3H]DA into rat striatal synaptosomes was measured exactly as described by us previously. Briefly, rat striatal P2 membrane fractions were incubated with test compounds for 8 min followed by the additional presence of [^3H]DA for 4 min at 25?. […] Construction of inhibition curves and dissolvement of test compounds were as described above.
# rat DAT = molecular target: T1, rat DAT (Rattus norvegicus, UniProt P23977); test: Inhibition of [3H]WIN 35,428 binding to DAT
# T1 construct: rat striatum was the source for DAT, and cerebral cortex for SERT and NET; from tissue; host or cells: rat striatum (P2 membrane fractions / synaptosomes for uptake)
# Protocol: as §1
# DAT = molecular target: T2, DAT (Rattus norvegicus, UniProt P23977); test: Inhibition of [3H]DA uptake by DAT into rat striatal synaptosomes; assay type: biochemical; settings: DAT binding vs DA uptake
# T2 construct: rat striatum was the source for DAT, and cerebral cortex for SERT and NET; from tissue; host or cells: rat striatum (P2 membrane fractions / synaptosomes for uptake)
# Protocol: as §1
# NET = molecular target: T3, NET (Rattus norvegicus, UniProt Q63380); test: Inhibition of [3H]NE uptake by NET; assay type: biochemical; settings: text summary of Table 4
# T3 construct: from tissue
# SERT = molecular target: T4, SERT (Rattus norvegicus, UniProt P31652); test: Inhibition of [3H]5-HT uptake by SERT; assay type: biochemical; settings: text summary of Table 4
# T4 construct: from tissue
# rat SERT = molecular target: T5, rat SERT (Rattus norvegicus, UniProt P31652); test: Inhibition of [3H]citalopram binding to SERT
# T5 construct: rat striatum was the source for DAT, and cerebral cortex for SERT and NET; from tissue; host or cells: rat cerebral cortex
# Protocol: as §1
# T3 sequence (Q63380 1-617): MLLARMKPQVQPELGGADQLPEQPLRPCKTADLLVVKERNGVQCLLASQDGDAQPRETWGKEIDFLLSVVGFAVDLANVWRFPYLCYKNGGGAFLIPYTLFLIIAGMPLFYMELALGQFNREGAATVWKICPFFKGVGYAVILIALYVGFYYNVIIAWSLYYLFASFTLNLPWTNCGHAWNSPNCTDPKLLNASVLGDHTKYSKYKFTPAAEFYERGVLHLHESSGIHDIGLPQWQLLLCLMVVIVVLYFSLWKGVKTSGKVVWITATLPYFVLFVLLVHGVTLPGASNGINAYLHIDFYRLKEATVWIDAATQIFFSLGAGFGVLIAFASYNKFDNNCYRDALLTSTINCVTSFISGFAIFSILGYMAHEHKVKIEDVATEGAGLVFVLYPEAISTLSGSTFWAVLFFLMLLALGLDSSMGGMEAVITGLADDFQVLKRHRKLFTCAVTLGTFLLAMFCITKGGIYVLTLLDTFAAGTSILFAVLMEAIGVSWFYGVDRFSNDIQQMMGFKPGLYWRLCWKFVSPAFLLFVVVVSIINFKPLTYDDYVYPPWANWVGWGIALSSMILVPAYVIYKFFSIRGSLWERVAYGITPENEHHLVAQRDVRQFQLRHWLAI
# T1 sequence (P23977 whole entry): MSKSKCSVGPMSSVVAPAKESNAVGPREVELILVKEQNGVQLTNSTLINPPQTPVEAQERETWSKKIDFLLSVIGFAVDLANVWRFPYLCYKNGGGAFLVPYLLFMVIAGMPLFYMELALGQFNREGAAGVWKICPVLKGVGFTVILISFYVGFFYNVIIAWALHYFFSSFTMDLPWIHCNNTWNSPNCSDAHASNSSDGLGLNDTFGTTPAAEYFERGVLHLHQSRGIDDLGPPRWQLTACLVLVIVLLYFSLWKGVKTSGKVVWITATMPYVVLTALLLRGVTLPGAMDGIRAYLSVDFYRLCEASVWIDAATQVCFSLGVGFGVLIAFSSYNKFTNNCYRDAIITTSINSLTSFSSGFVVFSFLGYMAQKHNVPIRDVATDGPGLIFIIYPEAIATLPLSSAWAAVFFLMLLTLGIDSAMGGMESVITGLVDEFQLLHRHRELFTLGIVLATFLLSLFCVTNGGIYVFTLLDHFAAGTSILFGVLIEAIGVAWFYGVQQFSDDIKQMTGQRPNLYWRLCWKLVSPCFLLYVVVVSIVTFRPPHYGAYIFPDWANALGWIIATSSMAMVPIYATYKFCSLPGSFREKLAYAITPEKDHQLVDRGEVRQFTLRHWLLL
# T4 sequence (P31652 whole entry): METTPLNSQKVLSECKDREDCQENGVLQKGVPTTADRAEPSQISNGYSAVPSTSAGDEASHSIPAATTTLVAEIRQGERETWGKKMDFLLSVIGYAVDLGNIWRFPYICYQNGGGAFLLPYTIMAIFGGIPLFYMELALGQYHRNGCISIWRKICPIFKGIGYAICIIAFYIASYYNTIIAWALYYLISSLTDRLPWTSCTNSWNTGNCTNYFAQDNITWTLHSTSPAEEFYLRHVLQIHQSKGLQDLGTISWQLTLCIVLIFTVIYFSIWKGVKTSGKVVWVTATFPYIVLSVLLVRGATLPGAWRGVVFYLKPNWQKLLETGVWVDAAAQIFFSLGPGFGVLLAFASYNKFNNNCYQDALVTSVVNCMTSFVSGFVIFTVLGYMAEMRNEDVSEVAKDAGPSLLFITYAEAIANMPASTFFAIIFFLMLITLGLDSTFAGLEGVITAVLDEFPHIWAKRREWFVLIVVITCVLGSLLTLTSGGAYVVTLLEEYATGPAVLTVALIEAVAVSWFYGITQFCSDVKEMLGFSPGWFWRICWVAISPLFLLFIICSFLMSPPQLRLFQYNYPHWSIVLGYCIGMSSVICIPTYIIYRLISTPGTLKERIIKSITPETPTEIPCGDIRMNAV
# T2 sequence (P23977 whole entry): as the sequence (P23977 whole entry) above
# T5 sequence (P31652 whole entry): as the sequence (P31652 whole entry) above
NET binding/DAT binding (rat NET),Compound,"Blockade of NET, in words (NET)",also measured
,"COc1ccc(CN[C@H]2C[C@H](C(c3ccccc3)c3ccccc3)OC[C@H]2O)cc1 (as salt: oxalate) [(+)-29g, (3S,4S,6R)-6-benzhydryl-4-(4-methoxy-benzylamino)-tetrahydro-pyran-3-ol]",,melting point: 235 to 237 °C
,"O[C@@H]1CO[C@@H](C(c2ccccc2)c2ccccc2)C[C@@H]1NCc1ccccc1 (as salt: oxalate) [(+)-29h, (3S,4S,6R)-6-benzhydryl-4-benzylamino-tetrahydropyran-3-ol]",,melting point: 259 to 260 °C
,"O[C@@H]1CO[C@H](C(c2ccccc2)c2ccccc2)C[C@H]1NCc1ccccc1 (as salt: oxalate) [(−)-29h, (3S,4R,6S)-6-benzhydryl-4-benzylamino-tetrahydropyran-3-ol]",,melting point: 259 to 260 °C
,"Oc1ccc(CN[C@H]2CC[C@@H](C(c3ccccc3)c3ccccc3)OC2)cc1 (relative stereo) (as salt: oxalate) [Compound 16h, Cis-(6-benzhydryl-tetrahydropyran-3-yl)-(4-hydroxy-benzyl)-amine]",,melting point: 136 to 138 °C
3.9,"Fc1ccc(CN[C@H]2CCO[C@@H](C(c3ccccc3)c3ccccc3)C2)cc1 (relative stereo) [Compound 7a, cis-(2-benzhydryl-tetrahydropyran-4-yl)-(4-fluorobenzyl)-amine]",,
,"N[C@H]1CC[C@@H](C(c2ccccc2)c2ccccc2)OC1 (relative stereo) [Compound 15, Cis-(6-benzhydryl-tetrahydropyran-3-yl)-amine]",,"Activity at the DAT, in words (rat DAT): little or no activity at the DAT"
1.4,"Fc1ccc(CN[C@H]2CC[C@@H](C(c3ccccc3)c3ccccc3)OC2)cc1 (relative stereo) [Compound 16b, Cis-(6-benzhydryl-tetrahydropyran-3-yl)-(4-fluoro-benzyl)-amine]",,
,"O=[N+]([O-])c1ccc(CN[C@H]2CC[C@@H](C(c3ccccc3)c3ccccc3)OC2)cc1 (relative stereo) [Compound 16d, Cis-(6-benzhydryl-tetrahydropyran-3-yl)-(4-nitro-benzyl)-amine]",,"Potency in inhibiting binding versus uptake, in words (DAT): three fold higher potency in inhibiting binding than uptake"
0.36,"Clc1ccc(CN[C@H]2CC[C@@H](C(c3ccccc3)c3ccccc3)OC2)cc1Cl (relative stereo) [Compound 16i, Cis-(6-benzhydryl-tetrahydropyran-3-yl)-(3,4-dichloro-benzyl)-amine]",,
1.9,"Fc1ccc(CN[C@H]2CC[C@@H](C(c3ccccc3)c3ccccc3)OC2)cc1F (relative stereo) [Compound 16j, Cis-(6-benzhydryl-tetrahydropyran-3-yl)-(3,4-difluoro-benzyl)-amine]",,
0.90,"c1ccc(CN[C@H]2CC[C@@H](C(c3ccccc3)c3ccccc3)OC2)cc1 (relative stereo) [Compound 16k, Cis-(6-benzhydryl-tetrahydropyran-3-yl)-benzyl-amine]",,
0.73,"Ic1ccc(CN[C@H]2CC[C@@H](C(c3ccccc3)c3ccccc3)OC2)cc1 (relative stereo) [Compound 16m, Cis-(6-benzhydryl-tetrahydropyran-3-yl)-(4-iodo-benzyl)-amine]",,
,"Oc1ccc(CN[C@H]2CO[C@@H](C(c3ccccc3)c3ccccc3)C[C@@H]2O)cc1 [(+)-32a, (2R,4S,5S)-2-benzhydryl-5-(4-hydroxy-benzylamino)-tetrahydro-pyran-4-ol]",selective blockers for NET,
,"Oc1ccc(CN[C@@H]2CC[C@H](C(c3ccccc3)c3ccccc3)OC2)cc1 [(+)-37a, cis-(3R,6R)-(6-benzhydryl-tetrahydropyran-3-yl)-(4-hydroxy-benzyl)-amine]",selective blockers for NET,
,"COc1ccc(CN[C@@H]2CO[C@H](C(c3ccccc3)c3ccccc3)C[C@H]2O)cc1 [(−)-29a, (2S,4R,5R)-2-benzhydryl-5-(4-methoxy-benzylamino)-tetrahydropyran-4-ol]",potent blockers,"Blockade of SERT, in words (SERT): potent blockers"
,"O[C@@H]1C[C@@H](C(c2ccccc2)c2ccccc2)OC[C@H]1NCc1ccc(F)cc1 [(−)-29b, (2S,4R,5R)-2-benzhydryl-5-(4-fluoro-benzylamino)-tetrahydro-pyran-4-ol]",selective blockers for NET,
,"O[C@@H]1C[C@@H](C(c2ccccc2)c2ccccc2)OC[C@H]1NCc1ccccc1 [(−)-29d, (2S,4R,5R)-2-benzhydryl-5-benzylamino-tetrahydro-pyran-4-ol]",selective blockers for NET,
,"COc1ccc(CN[C@@H]2CO[C@H](C(c3ccccc3)c3ccccc3)C[C@H]2O)c(OC)c1 [(−)-29e, (2S,4R,5R)-2-benzhydryl-5-(2,4-dimethoxy-benzylamino)-tetrahydropyran-4-ol]",potent blockers,"Blockade of SERT, in words (SERT): potent blockers"
,"COc1cc(CN[C@@H]2CO[C@H](C(c3ccccc3)c3ccccc3)C[C@H]2O)cc(OC)c1 [(−)-29f, (2S,4R,5R)-2-benzhydryl-5-(3,5-dimethoxy-benzylamino)-tetrahydropyran-4-ol]",potent blockers,"Blockade of SERT, in words (SERT): potent blockers"
,"Oc1ccc(CN[C@@H]2CO[C@H](C(c3ccccc3)c3ccccc3)C[C@H]2O)cc1 [(−)-32a, (2S,4R,5R)-2-benzhydryl-5-(4-hydroxy-benzylamino)-tetrahydropyran-4-ol]",selective blockers for NET,
,"O[C@@H]1C[C@@H](C(c2ccccc2)c2ccccc2)OC[C@H]1NCc1ccc2[nH]ccc2c1 [(−)-32b, (2S,4R,5R)-2-benzhydryl-5-[(1H-indol-5-ylmethyl)-amino]-tetrahydropyran-4-ol]",potent blockers,"Blockade of SERT, in words (SERT): potent blockers"
,"Oc1ccc(CN[C@H]2CC[C@@H](C(c3ccccc3)c3ccccc3)OC2)cc1 [(−)-37a, cis-(3S,6S)-(6-benzhydryl-tetrahydropyran-3-yl)-(4-hydroxy-benzyl)-amine]",potent blockers,"Blockade of SERT, in words (SERT): potent blockers"
,"c1ccc(CN[C@H]2CC[C@@H](C(c3ccccc3)c3ccccc3)NC2)cc1 [Compound 1a, reference compound]",,IC50 (rat DAT): 114 nM; IC50 (rat SERT): 2130 ± 110 nM
2.3,"c1ccc(C(c2ccccc2)C2CCC(NCc3c[nH]c4ccccc34)CO2)cc1 (stereo not drawn) [Compound 16f, Cis-(6-benzhydryl-tetrahydropyran-3-yl)-(3-indole-methyl)-amine]",,
1.8,"c1ccc(C(c2ccccc2)C2CCC(NCc3cc4ccccc4[nH]3)CO2)cc1 (stereo not drawn) [Compound 16g, Cis-(6-benzhydryl-tetrahydropyran-3-yl)-(2-indole-methyl)-amine]",,"Fold more active at DAT compared to 16f (rat DAT; DAT binding, 227 vs. 794 nM): 3.5 fold"

Compound,NET binding/DAT binding (rat NET),"Blockade of NET, in words (NET)",also measured
"c1ccc(C(c2ccccc2)[C@@H]2CC[C@H](NCc3ccc4[nH]ccc4c3)CO2)cc1 (relative stereo) [Compound 16n, Cis-(6-benzhydryl-tetrahydropyran-3-yl)-(1H-iodo-5-ylmethyl)-amine]",0.09,,
